Laboratory results taken from US5840684A, “Glycopeptide antibiotic derivatives” (Eli Lilly and Company, priority 1995, dated 1998).
≈ marks a conversion by molar mass, not a printed value.

Columns and labels:
[1] = system: Staphylococcus aureus S13E; format: cell-based
Description: (§1) The MIC's were determined using a standard broth micro-dilution assay.

[2] = system: Staphylococcus aureus SA1199B; format: cell-based
Description: as §1

[3] = system: Entercoccus faecium 180-1; assay: broth micro-dilution MIC; format: cell-based
Description: as §1

Entercoccus faecium 276 = assay: broth micro-dilution MIC; format: cell-based
Description: as §1

[4] = system: Staphylococcus aureus 446; assay: broth micro-dilution MIC; format: cell-based
Description: as §1

[5] = system: Staphylococcus aureus 447; assay: broth micro-dilution MIC; format: cell-based
Description: as §1

[6] = system: Staphylococcus aureus 491; assay: broth micro-dilution MIC; format: cell-based
Description: as §1

[7] = system: Staphylococcus aureus SA1199A; assay: broth micro-dilution MIC; format: cell-based
Description: as §1

[8] = system: Staphylococcus aureus SA1199; assay: broth micro-dilution MIC; format: cell-based
Description: as §1

[9] = system: Streptococcus pyogenes C203; assay: broth micro-dilution MIC; format: cell-based
Description: as §1

Entercoccus faecium 180 = assay: broth micro-dilution MIC; format: cell-based; conditions: Entercoccus faecium 180
Description: (§2) The formula I compounds have in vitro and in vivo activity against Gram-positive pathogenic bacteria. The MIC's were determined using a standard broth micro-dilution assay.

Entercoccus faecium 2041 = assay: broth micro-dilution MIC; format: cell-based; conditions: Entercoccus faecium 2041
Description: as §2

[10] = system: Enterococcus gallinarum 245; assay: broth micro-dilution MIC; format: cell-based; conditions: Enterococcus gallinarum 245
Description: as §2

[11] = system: Haemophilus influenzae RD; assay: broth micro-dilution MIC; format: cell-based; conditions: Haemophilus influenzae RD
Description: as §2

[12] = system: Staphylococcus epidermidis 270; assay: broth micro-dilution MIC; format: cell-based
Description: as §2

[13] = system: Staphylococcus haemolyticus 105; assay: broth micro-dilution MIC; format: cell-based
Description: as §2

[14] = system: Staphylococcus haemolyticus 415; assay: broth micro-dilution MIC; format: cell-based
Description: as §2

[15] = system: Streptococcus pneumoniae P1; assay: broth micro-dilution MIC; format: cell-based
Description: as §2

[16] = system: vancomycin-susceptible enterococci; assay: broth micro-dilution, mean geometric MIC; format: cell-based, Enterococcus faecium and Enterococcus faecalis; conditions: enterococci, 24-hour incubation
[17] = system: Staphylococcus aureus 489; assay: broth micro-dilution MIC; format: cell-based
Description: as §1

[18] = system: Staphylococcus aureus X400; assay: broth micro-dilution MIC; format: cell-based
Description: as §1

[19] = system: Staphylococcus aureus X778; assay: broth micro-dilution MIC; format: cell-based
Description: as §1

[20] = system: vancomycin-resistant enterococci; assay: broth micro-dilution, mean geometric MIC; format: cell-based, Enterococcus faecium and Enterococcus faecalis; conditions: enterococci, 24-hour incubation

Row | Compound | MIC [1] | MIC [2] | MIC [3] | MIC (Entercoccus faecium 276) | MIC [4] | MIC [5] | MIC [6] | MIC [7] | MIC [8] | MIC [9] | MIC (Entercoccus faecium 180) | MIC (Entercoccus faecium 2041) | MIC [10] | MIC [11] | MIC [12] | MIC [13] | MIC [14] | MIC [15] | mean geometric MIC, Vancomycin Sensitive Strains [16] | mean geometric MIC, Vancomycin Resistant Strains [20] | other results
1 | CNC(CC(C)C)C(=O)NC1C(=O)NC(CC(N)=O)C(=O)NC2C(=O)NC3C(=O)NC(C(=O)NC(C(=O)O)c4cc(O)cc(O)c4-c4cc3ccc4O)C(OC3CC(C)(N)C(O)C(C)O3)c3ccc(c(Cl)c3)Oc3cc2cc(c3OC2OC(CO)C(O)C(O)C2OC2CC(C)(NCc3cc4ccccc4s3)C(O)C(C)O2)Oc2ccc(cc2Cl)C1O (centres unmarked) [Compound 19] | ≤ 0.06 µg/mL | 1 µg/mL (≈ 0.575 µM) | ≤ 0.06 µg/mL | ≤ 0.06 µg/mL | 0.5 µg/mL (≈ 0.288 µM) | 1 µg/mL (≈ 0.575 µM) | 2 µg/mL (≈ 1.15 µM) | ≤ 0.06 µg/mL | 0.5 µg/mL (≈ 0.288 µM) | ≤ 0.06 µg/mL | 1 µg/mL (≈ 0.575 µM) | ≤ 0.06 µg/mL | ≤ 0.06 µg/mL | 32 µg/mL (≈ 18.4 µM) | 2 µg/mL (≈ 1.15 µM) | 4 µg/mL (≈ 2.3 µM) | 8 µg/mL (≈ 4.6 µM) | ≤ 0.06 µg/mL | 0.22 µg/mL | – | –
2 | CNC(CC(C)C)C(=O)NC1C(=O)NC(CC(N)=O)C(=O)NC2C(=O)NC3C(=O)NC(C(=O)NC(C(=O)O)c4cc(O)cc(O)c4-c4cc3ccc4O)C(OC3CC(C)(N)C(O)C(C)O3)c3ccc(c(Cl)c3)Oc3cc2cc(c3OC2OC(CO)C(O)C(O)C2OC2CC(C)(NCc3ccc(OCCOCCCl)cc3)C(O)C(C)O2)Oc2ccc(cc2Cl)C1O (centres unmarked) [Compound 75] | 0 µg/mL | 0.5 µg/mL (≈ 0.277 µM) | ≤ 0.06 µg/mL | ≤ 0.06 µg/mL | 2 µg/mL (≈ 1.11 µM) | 1 µg/mL (≈ 0.554 µM) | – | ≤ 0.06 µg/mL | 2 µg/mL (≈ 1.11 µM) | ≤ 0.06 µg/mL | 0.5 µg/mL (≈ 0.277 µM) | ≤ 0.06 µg/mL | 4 µg/mL (≈ 2.22 µM) | 2 µg/mL (≈ 1.11 µM) | 0.5 µg/mL (≈ 0.277 µM) | 2 µg/mL (≈ 1.11 µM) | 4 µg/mL (≈ 2.22 µM) | ≤ 0.06 µg/mL | 0.50 µg/mL | 16 µg/mL | MIC [17]: ≤ 0.06 µg/mL; MIC [18]: ≤ 0.06 µg/mL; MIC [19]: ≤ 0.06 µg/mL
3 | CNC(CC(C)C)C(=O)NC1C(=O)NC(CC(N)=O)C(=O)NC2C(=O)NC3C(=O)NC(C(=O)NC(C(=O)O)c4cc(O)cc(O)c4-c4cc3ccc4O)C(OC3CC(C)(N)C(O)C(C)O3)c3ccc(c(Cl)c3)Oc3cc2cc(c3OC2OC(CO)C(O)C(O)C2OC2CC(C)(NCc3ccc(C#Cc4ccccc4)cc3)C(O)C(C)O2)Oc2ccc(cc2Cl)C1O (centres unmarked) [Compound 79] | 4 µg/mL (≈ 2.24 µM) | 1 µg/mL (≈ 0.561 µM) | ≤ 0.06 µg/mL | ≤ 0.06 µg/mL | 2 µg/mL (≈ 1.12 µM) | 2 µg/mL (≈ 1.12 µM) | 4 µg/mL (≈ 2.24 µM) | – | 1 µg/mL (≈ 0.561 µM) | ≤ 0.06 µg/mL | ≤ 0.06 µg/mL | ≤ 0.06 µg/mL | ≤ 0.06 µg/mL | 16 µg/mL (≈ 8.98 µM) | 0.5 µg/mL (≈ 0.28 µM) | 4 µg/mL (≈ 2.24 µM) | 4 µg/mL (≈ 2.24 µM) | ≤ 0.06 µg/mL | 0.042 µg/mL | 0.84 µg/mL | MIC [17]: 2 µg/mL (≈ 1.12 µM); MIC [19]: 2 µg/mL (≈ 1.12 µM)
4 | CNC(CC(C)C)C(=O)NC1C(=O)NC(CC(N)=O)C(=O)NC2C(=O)NC3C(=O)NC(C(=O)NC(C(=O)O)c4cc(O)cc(O)c4-c4cc3ccc4O)C(OC3CC(C)(N)C(O)C(C)O3)c3ccc(c(Cl)c3)Oc3cc2cc(c3OC2OC(CO)C(O)C(O)C2OC2CC(C)(NCCCc3ccc(OC)cc3)C(O)C(C)O2)Oc2ccc(cc2Cl)C1O (centres unmarked) [Compound 175] | – | ≤ 0.06 µg/mL | ≤ 0.06 µg/mL | ≤ 0.06 µg/mL | 1 µg/mL (≈ 0.574 µM) | 1 µg/mL (≈ 0.574 µM) | 0.5 µg/mL (≈ 0.287 µM) | 0.5 µg/mL (≈ 0.287 µM) | ≤ 0.06 µg/mL | 0.5 µg/mL (≈ 0.287 µM) | 1 µg/mL (≈ 0.574 µM) | ≤ 0.06 µg/mL | 4 µg/mL (≈ 2.3 µM) | 16 µg/mL (≈ 9.19 µM) | 0.5 µg/mL (≈ 0.287 µM) | 2 µg/mL (≈ 1.15 µM) | 4 µg/mL (≈ 2.3 µM) | 0.5 µg/mL (≈ 0.287 µM) | 0.22 µg/mL | 9.5 µg/mL | MIC [19]: 0.5 µg/mL (≈ 0.287 µM)
5 | CNC(CC(C)C)C(=O)NC1C(=O)NC(CC(N)=O)C(=O)NC2C(=O)NC3C(=O)NC(C(=O)NC(C(=O)O)c4cc(O)cc(O)c4-c4cc3ccc4O)C(OC3CC(C)(N)C(O)C(C)O3)c3ccc(c(Cl)c3)Oc3cc2cc(c3OC2OC(CO)C(O)C(O)C2OC2CC(C)(NCc3ccc4cc(C)ccc4c3)C(O)C(C)O2)Oc2ccc(cc2Cl)C1O (centres unmarked) [Compound 189] | 0.5 µg/mL (≈ 0.286 µM) | 1 µg/mL (≈ 0.573 µM) | ≤ 0.06 µg/mL | – | 0.5 µg/mL (≈ 0.286 µM) | 0.5 µg/mL (≈ 0.286 µM) | ≤ 0.06 µg/mL | ≤ 0.06 µg/mL | 0.5 µg/mL (≈ 0.286 µM) | ≤ 0.06 µg/mL | – | ≤ 0.06 µg/mL | 1 µg/mL (≈ 0.573 µM) | 32 µg/mL (≈ 18.3 µM) | – | 1 µg/mL (≈ 0.573 µM) | 1 µg/mL (≈ 0.573 µM) | ≤ 0.06 µg/mL | 0.10 µg/mL | 2.4 µg/mL | MIC [17]: 1 µg/mL (≈ 0.573 µM)
6 | CNC(CC(C)C)C(=O)NC1C(=O)NC(CC(N)=O)C(=O)NC2C(=O)NC3C(=O)NC(C(=O)NC(C(=O)O)c4cc(O)cc(O)c4-c4cc3ccc4O)C(OC3CC(C)(N)C(O)C(C)O3)c3ccc(c(Cl)c3)Oc3cc2cc(c3OC2OC(CO)C(O)C(O)C2OC2CC(C)(NCCCC3CCCC3)C(O)C(C)O2)Oc2ccc(cc2Cl)C1O (centres unmarked) [Compound 208] | – | 0.5 µg/mL (≈ 0.294 µM) | ≤ 0.06 µg/mL | – | 1 µg/mL (≈ 0.587 µM) | 1 µg/mL (≈ 0.587 µM) | 0.5 µg/mL (≈ 0.294 µM) | ≤ 0.06 µg/mL | 0.5 µg/mL (≈ 0.294 µM) | ≤ 0.06 µg/mL | – | ≤ 0.06 µg/mL | 2 µg/mL (≈ 1.17 µM) | 32 µg/mL (≈ 18.8 µM) | 0.5 µg/mL (≈ 0.294 µM) | – | 2 µg/mL (≈ 1.17 µM) | ≤ 0.06 µg/mL | 0.17 µg/mL | 2.8 µg/mL | MIC [17]: 0.5 µg/mL (≈ 0.294 µM)
7 | CNC(CC(C)C)C(=O)NC1C(=O)NC(CC(N)=O)C(=O)NC2C(=O)NC3C(=O)NC(C(=O)NC(C(=O)O)c4cc(O)cc(O)c4-c4cc3ccc4O)C(OC3CC(C)(N)C(O)C(C)O3)c3ccc(c(Cl)c3)Oc3cc2cc(c3OC2OC(CO)C(O)C(O)C2OC2CC(C)(NCCCCC#Cc3ccccc3)C(O)C(C)O2)Oc2ccc(cc2Cl)C1O (centres unmarked) [Compound 235] | 0.125 µg/mL (≈ 0.0715 µM) | 0.5 µg/mL (≈ 0.286 µM) | ≤ 0.06 µg/mL | 0.125 µg/mL (≈ 0.0715 µM) | 0.5 µg/mL (≈ 0.286 µM) | – | 0.125 µg/mL (≈ 0.0715 µM) | ≤ 0.06 µg/mL | – | ≤ 0.06 µg/mL | 0.5 µg/mL (≈ 0.286 µM) | ≤ 0.06 µg/mL | 1 µg/mL (≈ 0.572 µM) | 8 µg/mL (≈ 4.57 µM) | 0.5 µg/mL (≈ 0.286 µM) | 0.5 µg/mL (≈ 0.286 µM) | 1 µg/mL (≈ 0.572 µM) | ≤ 0.06 µg/mL | – | 2.4 µg/mL | MIC [17]: 0.5 µg/mL (≈ 0.286 µM); MIC [18]: 0.125 µg/mL (≈ 0.0715 µM); MIC [19]: 0.5 µg/mL (≈ 0.286 µM)
